Assays:
Assay type in all cases: cell-based, human
[1] = tested on: BRAFV600E melanoma cell lines; experiment: Hormonal co-treatment in vitro: proliferative response to DT; settings: cell culture, co-treatment with dabrafenib 1 μM and trametinib 100 nM
[2] = tested on: BRAFV600E melanoma cell lines; experiment: Hormonal co-treatment in vitro: cell cycle response to DT; settings: cell culture, co-treatment with dabrafenib 1 μM and trametinib 100 nM
Experimental: (§1) In parallel, hormonal perturbations were evaluated in vitro using a panel of BRAFV600E melanoma cell lines derived from melanoma patients of the institution.
(§2) Melanoma cell lines derived from tumors of patients treated at UT MD Anderson Cancer Center under the TIL program were obtained from Dr. Chantale Bernatchez and Dr. Scott Woodman. For these studies, n=5 male (2373, 2400, 2650, 2800 and 624-mel) and n=5 female (2153, 2333, 2379, 2508, 2510) lines were selected based on carriage of BRAF^V600E/K mutations and avoidance of prior exposure in vivo to MAPK blockade therapies. Cells were maintained in phenol red-free RPMI-1640 supplemented with 10% heat-inactivated FBS, 1% GlutaMAX and 1% Pencillin/Streptomycin (all Gibco). LNCaP, MCF7 and PC3 cell lines were obtained from institutional stocks and maintained in RPMI-1640 supplemented as above (LNCaP, MCF7) or DMEM/F12 supplemented as above (PC3). All cell lines were confirmed mycoplasma negative using the Lonza MycoALERT kit prior to use, and authenticated by STR profiling via the MD Anderson Characterized Cell Line Core. […]

[3] = tested on: BRAFV600E melanoma cell lines; experiment: Hormonal co-treatment in vitro: apoptosis response to DT; settings: cell culture, co-treatment with dabrafenib 1 μM and trametinib 100 nM, 72 hours
Experimental: as §1
as §2, with “(PC3).” for “(PC3). All cell lines were confirmed mycoplasma negative using the Lonza MycoALERT kit prior to use, and authenticated by STR profiling via the MD Anderson Characterized Cell Line Core.”
Cells were plated into 6-well plates at 250,000 cells/well in full growth media and allowed to adhere overnight prior to drug treatment as shown in results in reduced-serum medium (5% FBS, phenol red-free RPMI-1640). […] Data acquisition by flow cytometry was performed within 2 hours of cell harvest and analyzed in FlowJo after gating on cell size, singlets, and applying Curly Quadrant gates to PI vs YO-PRO-1 fluorescence.

CNC(=O)c1ccc(N2C(=S)N(c3ccc(C#N)c(C(F)(F)F)c3)C(=O)C2(C)C)cc1F [enzalutamide]
no significant effects: effect on proliferative response to DT treatment [1] | effect on cell cycle response to DT treatment [2] | effect on apoptosis response to DT treatment [3]

C[C@]12CC[C@H]3[C@@H](CCC4=CC(=O)CC[C@@]43C)[C@@H]1CC[C@@H]2O [testosterone]
no significant effects: effect on proliferative response to DT treatment [1] | effect on cell cycle response to DT treatment [2] | effect on apoptosis response to DT treatment [3]
